From US9585892B2, “Solid forms comprising N-(5-tert-butyl-isoxazol-3-yl)-N′-{4-[7-(2-morpholin-4-yl-ethoxy)imidazo[2,1-b][1,3]benzothiazol-2-yl]phenyl}urea, compositions thereof, and uses therewith” (AMBIT BIOSCIENCES CORPORATION, priority 2007, dated 2017) come the findings set out here.

The nature of this data set: Stress experiments (temperature or relative humidity, XRPD after stress). The class given is physicochemical. How it is done:
Stress Experiments. Solids were stressed under different temperature or relative humidity (RH) environments for a measured time period. Specific RH values were achieved by placing the sample inside sealed chambers containing saturated salt solutions. The salt solutions were selected and prepared following an ASTM standard procedure. Samples were analyzed by XRPD immediately after removal from the stress environment.
X-ray powder diffraction analyses were performed on an Inel XRG-3000 diffractometer, equipped with a curved position-sensitive detector with a […] of 120°. Real time data was collected using Cu Kα radiation starting at approximately 4 ° 2θ at a resolution of 0.03 ° 2θ. The tube voltage and amperage were set to 40 kV and 30 mA, respectively. […] Samples were prepared for analysis by packing them into thin-walled glass capillaries. Each capillary was mounted onto a goniometer head that is motorized to permit spinning of the capillary during data acquisition. Instrument calibration was performed daily using a silicon reference standard.

Where [1] appears, read: 75% RH, ambient temperature, 5 days.
The mark [2] stands for this setting: 75% RH, ambient temperature, 3 days.
Setting [3] is: 75% RH, ambient temperature, 3 days, listed as Amorphous.

The structures appear in SMILES notation. “Also recorded” adds a separate entry of the source. Where a name gives a salt, the structure may show the parent alone.

In the case of `CC(C)(C)c1cc(NC(=O)Nc2ccc(-c3cn4c(n3)sc3cc(OCCN5CCOCC5)ccc34)cc2)no1` [Form A of the HBr salt of Compound B1, N-(5-tert-butyl-isoxazol-3-yl)-N′-{4-[7-(2-morpholin-4-yl-ethoxy)imidazo[2,1-b][1,3]benzothiazol-2-yl]phenyl}urea], the deliquescence upon storage entry (75% RH, 4 days) is recorded as “does not deliquesce; also recorded: did not deliquesce”.
On to `CC(C)(C)c1cc(NC(=O)Nc2ccc(-c3cn4c(n3)sc3cc(OCCN5CCOCC5)ccc34)cc2)no1` [Form A of the edisylate salt of Compound B1] [N-(5-tert-butyl-isoxazol-3-yl)-N′-{4-[7-(2-morpholin-4-yl-ethoxy)imidazo[2,1-b][1,3]benzothiazol-2-yl]phenyl}urea], for which the deliquescence upon storage entry (75% RH, 7 days) is recorded as “does not deliquesce; also recorded: did not deliquesce”.
Turning to `CC(C)(C)c1cc(NC(=O)Nc2ccc(-c3cn4c(n3)sc3cc(OCCN5CCOCC5)ccc34)cc2)no1` [Form A of the mesylate salt of Compound B1] [N-(5-tert-butyl-isoxazol-3-yl)-N′-{4-[7-(2-morpholin-4-yl-ethoxy)imidazo[2,1-b][1,3]benzothiazol-2-yl]phenyl}urea], the deliquescence upon storage entry under setting [1] was “does not deliquesce; also recorded: did not deliquesce”.
As for `CC(C)(C)c1cc(NC(=O)Nc2ccc(-c3cn4c(n3)sc3cc(OCCN5CCOCC5)ccc34)cc2)no1` [Form A of the napsylate salt of Compound B1] [N-(5-tert-butyl-isoxazol-3-yl)-N′-{4-[7-(2-morpholin-4-yl-ethoxy)imidazo[2,1-b][1,3]benzothiazol-2-yl]phenyl}urea], the deliquescence upon storage entry (75% RH, 7 days) is recorded as “does not deliquesce; also recorded: did not deliquesce”.
As to `CC(C)(C)c1cc(NC(=O)Nc2ccc(-c3cn4c(n3)sc3cc(OCCN5CCOCC5)ccc34)cc2)no1` [Form B of the besylate salt of Compound B1] [N-(5-tert-butyl-isoxazol-3-yl)-N′-{4-[7-(2-morpholin-4-yl-ethoxy)imidazo[2,1-b][1,3]benzothiazol-2-yl]phenyl}urea], the deliquescence upon storage entry (75% RH, 7 days) is given as “does not deliquesce; also recorded: did not deliquesce”.
Still for that read-out and setting: with `CC(C)(C)c1cc(NC(=O)Nc2ccc(-c3cn4c(n3)sc3cc(OCCN5CCOCC5)ccc34)cc2)no1` [Form B of the esylate salt of Compound B1] [N-(5-tert-butyl-isoxazol-3-yl)-N′-{4-[7-(2-morpholin-4-yl-ethoxy)imidazo[2,1-b][1,3]benzothiazol-2-yl]phenyl}urea] the entry was “does not deliquesce; also recorded: did not deliquesce”.
Regarding `CC(C)(C)c1cc(NC(=O)Nc2ccc(-c3cn4c(n3)sc3cc(OCCN5CCOCC5)ccc34)cc2)no1` [Form B of the mesylate salt of Compound B1] [N-(5-tert-butyl-isoxazol-3-yl)-N′-{4-[7-(2-morpholin-4-yl-ethoxy)imidazo[2,1-b][1,3]benzothiazol-2-yl]phenyl}urea], where the note is “75% RH, 4 days”, the deliquescence upon storage entry is on record as “does not deliquesce; also recorded: did not deliquesce”.
Regarding `CC(C)(C)c1cc(NC(=O)Nc2ccc(-c3cn4c(n3)sc3cc(OCCN5CCOCC5)ccc34)cc2)no1` [Form B of the napsylate salt of Compound B1] [N-(5-tert-butyl-isoxazol-3-yl)-N′-{4-[7-(2-morpholin-4-yl-ethoxy)imidazo[2,1-b][1,3]benzothiazol-2-yl]phenyl}urea], the deliquescence upon storage result (75% RH, 7 days) was “does not deliquesce; also recorded: did not deliquesce”.
Turning to `CC(C)(C)c1cc(NC(=O)Nc2ccc(-c3cn4c(n3)sc3cc(OCCN5CCOCC5)ccc34)cc2)no1` [Form B of the tosylate salt of Compound B1] [N-(5-tert-butyl-isoxazol-3-yl)-N′-{4-[7-(2-morpholin-4-yl-ethoxy)imidazo[2,1-b][1,3]benzothiazol-2-yl]phenyl}urea], the deliquescence upon storage entry under setting [1] is reported as “does not deliquesce; also recorded: did not deliquesce”.
On to `CC(C)(C)c1cc(NC(=O)Nc2ccc(-c3cn4c(n3)sc3cc(OCCN5CCOCC5)ccc34)cc2)no1` [Form C of the sulfate salt of Compound B1] [N-(5-tert-butyl-isoxazol-3-yl)-N′-{4-[7-(2-morpholin-4-yl-ethoxy)imidazo[2,1-b][1,3]benzothiazol-2-yl]phenyl}urea], for which, where the note is “75% RH, 7 days”, the deliquescence upon storage entry was “does not deliquesce; also recorded: did not deliquesce”.
Turning to `CC(C)(C)c1cc(NC(=O)Nc2ccc(-c3cn4c(n3)sc3cc(OCCN5CCOCC5)ccc34)cc2)no1` [Form D of the HCl salt of Compound B1, N-(5-tert-butyl-isoxazol-3-yl)-N′-{4-[7-(2-morpholin-4-yl-ethoxy)imidazo[2,1-b][1,3]benzothiazol-2-yl]phenyl}urea], the “XRPD Result after stress” value (Oven: 80° C., 3 days) is listed as “Form D”.
As for `CC(C)(C)c1cc(NC(=O)Nc2ccc(-c3cn4c(n3)sc3cc(OCCN5CCOCC5)ccc34)cc2)no1` [Form F of the HCl salt of Compound B1, N-(5-tert-butyl-isoxazol-3-yl)-N′-{4-[7-(2-morpholin-4-yl-ethoxy)imidazo[2,1-b][1,3]benzothiazol-2-yl]phenyl}urea], the “XRPD Result after stress” value runs as follows: (Oven: 80° C., 3 days) “substantially disordered, but which retains some Form F content”; (Oven: 80° C., 3 days, listed as F) “Disordered + F”.
For the molecule `CC(C)(C)c1cc(NC(=O)Nc2ccc(-c3cn4c(n3)sc3cc(OCCN5CCOCC5)ccc34)cc2)no1` [N-(5-tert-butyl-isoxazol-3-yl)-N′-{4-[7-(2-morpholin-4-yl-ethoxy)imidazo[2,1-b][1,3]benzothiazol-2-yl]phenyl}urea], under setting [2], the “XRPD Result after stress” value was “remains unchanged”, the deliquescence upon storage result is “does not deliquesce; also recorded: did not deliquesce”, the “water corresponding to the weight gain” value is listed as “about 4.3 molar equivalents of water” and the weight gain entry was “about 12.3%”. Also, under setting [3], the “XRPD Result after stress” value is recorded as “Amorphous” and the weight gain result is “white solid, irregular particles, 11.8%”. The “XRPD Result after stress” value (Oven: 40° C., 8 days) was “remains unchanged”. Further, where the note is “Oven: 40° C., 8 days, listed as Amorphous”, the “XRPD Result after stress” value was “Amorphous”.
